According to ChEMBL document CHEMBL1221212, “Small-molecule activation of neuronal cell fate” (Nat Chem Biol, 2008):
The source made the active and inactive calls. The calls are words filed in the database; no cut-off is given here.

What was measured:
[1] = system: HCN; assay: Induction of neurogenesis in undifferentiated rat HCN cells assessed as MAP2AB protein level at 8 to 64 uM after 9 hrs by protein blotting analysis; format: functional, cell-based
[2] = system: HCN; assay: Induction of L-type calcium channel/NMDA receptor-mediated Ca2+ influx in rat HCN cells; format: cell-based
[3] = system: HCN; assay: Induction of rat HCN cell differentiation assessed as increase in neuroD gene expression after 3 hrs by RT-PCR analysis; format: functional, cell-based
[4] = system: HCN; assay: Induction of HDAC5 translocation in nucleus of rat HCN cells assessed as GFP-HDAC5 fusion protein accumulation at 20 uM by fluorescence assay; format: functional, cell-based
[5] = target: T1, Glutamate NMDA receptor (Rattus norvegicus) (UniProt P35439+Q00959+Q00960+Q00961+Q62645+Q8VHN2+Q9R1M7); assay: Induction of NMDA receptor-mediated neuroD gene expression in rat HCN cells at 50 uM after 3 hrs by RT-PCR analysis in presence of NMDA receptor antagonist MK801; format: functional, cell-based
[6] = system: HCN; assay: Induction of rat HCN cell differentiation assessed as induction of induction of MREx3 gene expression by luciferase reporter gene assay; format: functional, cell-based
[7] = system: Neuronal progenitor cell; assay: Induction of mouse neuronal progenitor cell differentiation at 25 uM after 4 days; format: functional, cell-based
[8] = system: HCN; assay: Induction of rat HCN cell differentiation assessed as increase in p27Kip1 gene expression after 9 days by RT-PCR analysis; format: functional, cell-based
[9] = system: HCN; assay: Induction of rat HCN cell differentiation assessed as increase in MAP2AB gene expression after 9 days by RT-PCR analysis; format: functional, cell-based
[10] = system: HCN; assay: Induction of rat HCN cell differentiation assessed as increase in neuroD gene expression at 10 uM after 3 hrs by RT-PCR analysis; format: functional, cell-based
[11] = system: HCN; assay: Induction of CAMK-mediated MREx3 activity in rat HCN cells by luciferase reporter gene assay in presence of 200 nM PKC inhibitor Go6976; format: cell-based
[12] = system: HCN; assay: Induction of CAMK2 phosphorylation in rat HCN cells by Western blot analysis in presence of 2.5 uM CAMK inhibitor KN93; format: cell-based
[13] = system: HCN; assay: Inhibition of gliogenesis differentiation in rat HCN cells at 25 uM after 4 days; format: functional, cell-based
[14] = system: HCN; assay: Induction of rat HCN cell differentiation into Tuj1 neurons at 20 uM after 4 days in presence of caspase inhibitor Q-VD-Oph; format: functional, cell-based
[15] = Induction of rat HCN cell differentiation assessed as upregulation of MEF2A expression after 2 to 4 days by protein blotting analysis; format: functional, cell-based
[16] = system: HCN; assay: Induction of rat HCN cell differentiation assessed as increase in Tuj1 gene expression after 3 hrs by RT-PCR analysis; format: functional, cell-based
[17] = system: HCN; assay: Induction of CAMK-mediated MREx3 activity in rat HCN cells by luciferase reporter gene assay in presence of 2.5 uM CAMK inhibitor KN93; format: cell-based
[18] = system: HCN; assay: Induction of HDAC5 translocation in cytoplasm of rat HCN cells assessed as phosphorylated HDAC5 accumulation; format: functional, cell-based
[19] = system: HCN; assay: Induction of rat HCN cell differentiation assessed as induction of neuronal reporter neuroD activity by luciferase reporter gene assay; format: functional, cell-based
[20] = system: HCN; assay: Induction of L-type calcium channel/NMDA receptor-mediated Ca2+ influx in rat HCN cells in presence multiple inhibitors; format: cell-based
[21] = system: P19CL6; assay: Induction of mouse C57BL/6 P19CL6 cell differentiation assessed as induction of neuronal reporter gluR2 expression by luciferase reporter gene assay; format: functional, cell-based
[22] = system: HCN; assay: Induction of rat HCN cell differentiation assessed as increase in Tuj1 gene expression after 3 days by RT-PCR analysis; format: functional, cell-based
[23] = system: HCN; assay: Induction of neurogenesis in undifferentiated rat HCN cells assessed as MEF2C protein level at 8 to 64 uM after 9 hrs by protein blotting analysis; format: functional, cell-based
[24] = system: HCN; assay: Effect on subcellular distribution of CREB protein in rat HCN cells after 5 days; format: functional, cell-based
[25] = system: HCN; assay: Induction of HDAC5 phosphorylation in rat HCN cells after 6 hrs; format: functional, cell-based
[26] = system: HCN; assay: Induction of HDAC5 phosphorylation in rat HCN cells after 24 hrs; format: functional, cell-based
[27] = target: T1, Glutamate NMDA receptor (Rattus norvegicus); assay: Induction of NMDA receptor-mediated Ca2+ influx in rat HCN cells in presence of NMDA receptor antagonist MK801; format: functional, cell-based
[28] = target: T1, Glutamate NMDA receptor (Rattus norvegicus); assay: Induction of NMDA receptor-mediated neuroD gene expression in rat HCN cells at 50 uM after 3 hrs by RT-PCR analysis in presence of NMDA receptor antagonist nifedipine; format: functional, cell-based
[29] = system: HCN; assay: Induction of rat HCN cell differentiation assessed as increase in NR1 gene expression after 3 hrs by RT-PCR analysis; format: functional, cell-based
[30] = system: HCN; assay: Induction of CAMK-mediated MREx3 activity in rat HCN cells by luciferase reporter gene assay in presence of 2.5 uM potassium channel inhibitor KN92; format: cell-based
[31] = system: HCN; assay: Induction of rat HCN cell differentiation assessed as increase in GluR2 gene expression after 3 days by RT-PCR analysis; format: functional, cell-based
[32] = system: Neuronal progenitor cell; assay: Induction of mouse progenitor cell differentiation into Map2ab-positive neurons at 20 uM after 4 days; format: functional, cell-based
[33] = system: HCN; assay: Induction of L-type calcium channel/NMDA receptor-mediated Ca2+ influx in rat HCN cells at 5 uM by Fura-2 imaging analysis; format: cell-based
[34] = system: Neuronal progenitor cell; assay: Induction of mouse progenitor cell differentiation into Tuj1 neurons at 20 uM after 4 days; format: functional, cell-based
[35] = system: HCN; assay: Induction of LIF/BMP2-mediated rat HCN cell differentiation into GFAP-positive astrocytes after 4 days; format: functional, cell-based
[36] = system: HCN; assay: Induction of LIF/BMP2-mediated rat HCN cell differentiation into Tuj1 neurons after 4 days; format: functional, cell-based
[37] = system: HCN; assay: Induction of rat HCN cell differentiation assessed as induction of neuronal reporter neuroD activity at 20 uM after 24 hrs by luciferase reporter gene assay; format: functional, cell-based
[38] = system: HCN; assay: Effect on subcellular distribution of MEF2C protein in rat HCN cells after 5 days; format: functional, cell-based
[39] = organism: Rattus norvegicus; assay: Induction of rat HCN differentiation into Tuj1 neurons at 25 uM after 4 days; format: functional
[40] = system: HCN; assay: Induction of rat HCN cell differentiation assessed as increase in neuroD gene expression after 1 day by RT-PCR analysis; format: functional, cell-based
[41] = system: HCN; assay: Induction of CAMK-mediated HDAC5 phosphorylation in rat HCN cells by Western blot analysis in presence of 2.5 uM CAMK inhibitor KN93; format: cell-based
[42] = system: HCN; assay: Inhibition of LIF/BMP2-mediated rat HCN cell differentiation into astrocytes at 25 uM; format: functional, cell-based
[43] = system: HCN; assay: Induction of rat HCN cell differentiation assessed as increase in NR1 gene expression after 3 days by RT-PCR analysis; format: functional, cell-based
[44] = system: HCN; assay: Induction of HDAC5 translocation in nucleus of rat HCN cells assessed as GFP-HDAC5 S258A S498A mutant fusion protein accumulation at 5 uM by fluorescence assay; format: functional, cell-based
[45] = Cytotoxicity in rat HCN cells at 20 uM after 4 days; format: cell-based; conditions: 96 h
[46] = system: HCN; assay: Induction of rat HCN cell differentiation assessed as increase in NR1 gene expression after 1 day by RT-PCR analysis; format: functional, cell-based
[47] = target: T1, Glutamate NMDA receptor (Rattus norvegicus); assay: Induction of NMDA receptor-mediated Ca2+ influx in rat HCN cells at 5 uM by Fura-2 imaging analysis in presence of NMDA receptor antagonist MK801; format: functional, cell-based
[48] = Induction of rat HCN cell differentiation assessed as upregulation of MEF2C expression after 2 to 4 days by protein blotting analysis; format: functional, cell-based
[49] = target: T1, Glutamate NMDA receptor (Rattus norvegicus); assay: Induction of NMDA receptor-mediated neuroD gene expression in rat HCN cells at 50 uM after 24 hrs by RT-PCR analysis in presence of NMDA receptor antagonist nifedipine; format: functional, cell-based
[50] = system: HCN; assay: Induction of L-type calcium channel/NMDA receptor-mediated neuroD gene expression in rat HCN cells at 50 uM after 3 hrs by RT-PCR analysis in presence of multiple inhibitors; format: cell-based
[51] = system: HCN; assay: Induction of rat HCN cell differentiation assessed as increase in GluR2 gene expression after 3 hrs by RT-PCR analysis; format: functional, cell-based
[52] = target: T1, Glutamate NMDA receptor (Rattus norvegicus); assay: Induction of NMDA receptor-mediated neuroD gene expression in rat HCN cells at 50 uM after 24 hrs by RT-PCR analysis in presence of NMDA receptor antagonist MK801; format: functional, cell-based
[53] = system: HCN; assay: Induction of rat HCN cell differentiation assessed as increase in DCX gene expression after 9 days by RT-PCR analysis; format: functional, cell-based
[54] = system: P19CL6; assay: Induction of C57BL/6 mouse P19CL6 cell differentiation at 50 uM after 4 days; format: functional, cell-based
[55] = Induction of rat HCN cell differentiation assessed as upregulation of MEF2D expression after 2 to 4 days by protein blotting analysis; format: functional, cell-based
[56] = Induction of rat HCN cell proliferation at 20 uM after 20 days by BrdU incorporation assay; format: functional
[57] = system: HCN; assay: Induction of L-type calcium channel/NMDA receptor-mediated neuroD gene expression in rat HCN cells at 50 uM after 24 hrs by RT-PCR analysis in presence of multiple inhibitors; format: cell-based
[58] = system: HCN; assay: Induction of neurogenesis in undifferentiated rat HCN cells assessed as MEF2A protein level at 8 to 64 uM after 9 hrs by protein blotting analysis; format: functional, cell-based
[59] = system: HCN; assay: Induction of rat HCN cell differentiation assessed as increase in GluR2 gene expression after 1 day by RT-PCR analysis; format: functional, cell-based
[60] = system: HCN; assay: Induction of neurogenesis in undifferentiated rat HCN cells assessed as GlR2/3 protein level at 8 to 64 uM after 9 hrs by protein blotting analysis; format: functional, cell-based
[61] = system: HCN; assay: Induction of rat HCN cell differentiation assessed as increase in beta-TUB3 gene expression after 9 days by RT-PCR analysis; format: functional, cell-based
[62] = system: HCN; assay: Induction of rat HCN cell differentiation assessed as increase in Tuj1 gene expression after 1 day by RT-PCR analysis; format: functional, cell-based
[63] = system: HCN; assay: Induction of L-type calcium channel/NMDA receptor-mediated Ca2+ influx in rat HCN cells at 5 uM by Fura-2 imaging analysis in presence of multiple of inhibitors; format: cell-based
[64] = system: HCN; assay: Induction of rat HCN cell differentiation assessed as increase in neuroD gene expression after 3 days by RT-PCR analysis; format: functional, cell-based
[65] = system: HCN; assay: Effect on subcellular distribution of MEF2A protein in rat HCN cells after 5 days; format: functional, cell-based
[66] = system: P19CL6; assay: Induction of mouse C57BL/6 P19CL6 cell differentiation assessed as induction of neuronal reporter neuroD activity by luciferase reporter gene assay; format: functional, cell-based

O=C(NC1CC1)c1cc(-c2cccs2)on1
Activity [1]: Active | Activity [2]: Active | Activity [3]: Active | Activity [4]: Active | Activity [5]: Active | Activity [6]: Dose-dependent effect | Activity [7]: Active | Activity [8]: Active | Activity [9]: Active | Activity [10]: Active | Activity [11]: Active | Activity [12]: inactive | inhibition [13]: Active | Activity [14]: Active | Activity [15]: inactive | Activity [16]: Active | Activity [17]: inactive | Activity [18]: Active | Activity [19]: Dose-dependent effect | Activity [20]: Active | Activity [21]: Dose-dependent effect | Activity [22]: Active | Activity [23]: inactive | Activity [24]: inactive | Activity [25]: Active | Activity [26]: Active | Activity [27]: Active | Activity [28]: Active | Activity [29]: Active | Activity [30]: Active | Activity [31]: Active | Activity [32]: Active | Activity [33]: Active | Activity [34]: Active | inhibition [35]: Active | Activity [36]: Active | Activity [37]: Active | Activity [38]: inactive | Activity [39]: Active | Activity [40]: Active | Activity [41]: inactive | inhibition [42]: Active | Activity [43]: Active | Activity [44]: Active | Activity [45]: 18% | Activity [46]: Active | Activity [47]: Active | Activity [48]: Active | Activity [49]: Active | Activity [50]: Active | Activity [51]: Active | Activity [52]: Active | Activity [53]: Active | Activity [54]: Active | Activity [55]: Active | Activity [56]: 40% | Activity [57]: Active | Activity [58]: inactive | Activity [59]: Active | Activity [60]: Active | Activity [61]: Active | Activity [62]: Active | Activity [63]: Active | Activity [64]: Active | Activity [65]: inactive

CNC(=O)c1cc(-c2cccs2)on1
Activity [37]: Active

O=C(NC1CCCC1)c1cc(-c2ccco2)on1
Activity [19]: Dose-dependent effect | Activity [66]: Dose-dependent effect

O=C(NC1CCC1)c1cc(-c2cccs2)on1
Activity [37]: Active

O=C(NC1CCCC1)c1cc(-c2cccs2)on1
Activity [19]: Dose-dependent effect | Activity [37]: Active

C=CCNC(=O)c1cc(-c2cccs2)on1
Activity [66]: Dose-dependent effect

O=C(NC1CCCCC1)c1cc(-c2cccs2)on1
Activity [37]: Active

Cc1cc(C(=O)Nc2sc3c(c2C#N)CCCC3)no1
Activity [19]: Dose-dependent effect
